# Data from publication PMC12736255, “Reinvestigating Pyrrol-2-One-Based Compounds: From Antimicrobial Agents to Promising Antitumor Candidates” (Pharmaceuticals, 2025).
# Marks after values point to notes of the source that are not given here.
# Columns and labels:
# ACHN = test: NCI-60 5-dose screen; type: cell-based, human
# OVCAR-8 = test: NCI-60 single-dose screen; type: cell-based; conditions: Homo sapiens; OVCAR-8, 10^–5 M; read-out: GI (%)
# How it was run: (§1)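 Testing used one compound level, 10^−5 M, on the NCI human cancer cell line panel (60 lines; leukemia through breast).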
# COLO205 = test: NCI-60 single-dose screen; type: cell-based; conditions: Homo sapiens, COLO 205; COLO205, 10^–5 M; read-out: GI (%)
# How it was run: as §1
# PC-3 = test: NCI-60 single-dose screen; type: cell-based; conditions: Homo sapiens, PC-3, PC-3, 10^–5 M; read-out: GI (%)
# How it was run: as §1
# SN12C = test: NCI-60 single-dose screen; type: cell-based; conditions: Homo sapiens, 10^–5 M, read-out: GI (%)
# How it was run: as §1
# HCC-2998 = test: NCI-60 single-dose screen; type: cell-based; conditions: Homo sapiens; HCC-2998, 10^–5 M; read-out: GI (%)
# How it was run: as §1
# A498 = test: NCI-60 single-dose screen; type: cell-based; conditions: Homo sapiens; A498, 10^–5 M; read-out: GI (%)
# How it was run: as §1
# SNB-19 = test: NCI-60 single-dose screen; type: cell-based; conditions: Homo sapiens; SNB-19, 10^–5 M; read-out: GI (%)
# How it was run: as §1
# SK-MEL-5 = test: NCI-60 single-dose screen; type: cell-based; conditions: Homo sapiens; SK-MEL-5, 10^–5 M; read-out: GI (%)
# How it was run: as §1
# MDA-MB-435 = test: NCI-60 single-dose screen; type: cell-based; conditions: Homo sapiens; MDA-MB-435, 10^–5 M; read-out: GI (%)
# How it was run: as §1
# CAKI-1 = test: NCI-60 single-dose screen; type: cell-based; conditions: Homo sapiens; CAKI-1, 10^–5 M; read-out: GI (%)
# How it was run: as §1
# OVCAR-5 = test: NCI-60 single-dose screen; type: cell-based; conditions: Homo sapiens; OVCAR-5, 10^–5 M; read-out: GI (%)
# How it was run: as §1
# KM12 = test: NCI-60 single-dose screen; type: cell-based; conditions: Homo sapiens; KM12, 10^–5 M; read-out: GI (%)
# How it was run: as §1
# MOLT-4 = test: NCI-60 5-dose screen; type: cell-based, human
# RPMI-8226 = test: NCI-60 5-dose screen; type: cell-based, human
# LN-229 = test: CellTiter-Glo 2.0 cytotoxicity, glioblastoma; type: cell-based, human; conditions: LN-229, 24 h
# Method: (§2) Cytotoxicity of compounds was assessed using the CellTiter-Glo® 2.0 Assay (Promega, Madison, WI, USA) on human gingival fibroblasts (HGF), osteosarcoma (HOS and MG-63) and glioblastoma (LN-229 and U-118MG) cells, according to the manufacturer’s instructions. HGF, HOS, MG-63 and U-118MG cells were purchased from Cytion GmbH, Eppelheim, Germany, and LN-229 (CRL-2611) from the American Type Culture Collection (ATCC), Manassas, VA, USA. Cells were seeded (50,000 cells/mL—HGF, 100,000 cells/mL—tumor cells) into 96-well opaque white tissue culture-treated plates and allowed to adhere overnight in αMEM medium with 10% fetal bovine serum and 1% antibiotic-antimycotic (all from PAN—Biotech GmbH, Aidenbach, Germany). Cells were incubated with compounds (10 or 50 µM) for 24 h, then CellTiter-Glo® reagent was added and luminescence was recorded using a FLUOstar® Omega microplate reader (BMG LABTECH, Ortenberg, Germany). The experiments were carried out in triplicate, and the viability of treated cells was expressed as a percentage of the viability of control cells (untreated). Data were represented as means ± standard deviations. Stock solutions of compounds were prepared in DMSO, then diluted in complete cell culture media. […] Data were analyzed with independent two-tailed (Student’s) t-test, considering p < 0.05 statistically significant.
# U-118MG = test: CellTiter-Glo 2.0 cytotoxicity, glioblastoma; type: cell-based, human; conditions: 50 µM, 24 h
# Method: as §2
# HT29 = test: NCI-60 5-dose screen; type: cell-based, human
# MALME-3M = test: NCI-60 5-dose screen; type: cell-based, human
# MDA-MB-231/ATCC = test: NCI-60 5-dose screen; type: cell-based, human
# EKVX = test: NCI-60 single-dose screen; type: cell-based, human; conditions: 10^–5 M; for inhibition at 10 µM: Homo sapiens, read-out: GI (%)
# Description: (§3) In the next step, all synthesized compounds were electronically submitted and accepted for testing to the National Cancer Institute (NCI) platform, for the single dose (10^−5 M) screening against a panel of 60 human tumor cell lines, representing leukemia, melanoma, and cancers of the lung, colon, central nervous system, ovary, kidney, prostate, and breast. The results are summarized in Table 2, with the best values highlighted in red (Figures S1–S14).
# NCI-H226 = test: NCI-60 single-dose screen; type: cell-based, human; conditions: NCI-H226, 10^–5 M; for inhibition at 10 µM: Homo sapiens, read-out: GI (%)
# Description: as §3
# MDA-MB-468 [1] = test: NCI-60 5-dose screen; type: cell-based, human
# UO-31 = test: NCI-60 single-dose screen; type: cell-based, human; conditions: UO-31, 10^–5 M
# Description: as §3
# BT-549 = test: NCI-60 single-dose screen; type: cell-based, human; conditions: BT-549, 10^–5 M
# Description: as §3
# U251 = test: NCI-60 single-dose screen; type: cell-based, human; conditions: U251, 10^–5 M
# Description: as §3
# MDA-MB-468 [2] = test: NCI-60 single-dose screen; type: cell-based, human; conditions: MDA-MB-468, 10^–5 M
# Description: as §3
# HOP-62 = test: NCI-60 single-dose screen; type: cell-based, human; conditions: HOP-62, 10^–5 M
# Description: as §3
# SF-295 = test: NCI-60 single-dose screen; type: cell-based, human; conditions: SF-295, 10^–5 M
# Description: as §3
# [3] = Homo sapiens, read-out: LC50 (the source's name)
structure (smiles),measurement,setting,value
O=C1C(Nc2ccc(I)cc2)=CC(c2ccc(C(F)(F)F)cc2)N1c1ccc(I)cc1 (stereo not shown) [3e],TGI,ACHN,>100 µM
same,GI50,ACHN; Homo sapiens,4.05 µM
same,CC50,ACHN; [3],> 100 µM
same,inhibition at 10 µM,OVCAR-8,43%
same,inhibition at 10 µM,COLO205,61%
same,inhibition at 10 µM,PC-3,26%
same,inhibition at 10 µM,SN12C,60%
same,inhibition at 10 µM,HCC-2998,0%
same,inhibition at 10 µM,A498,100%
same,inhibition at 10 µM,SNB-19,71%
same,inhibition at 10 µM,SK-MEL-5,0%
same,inhibition at 10 µM,MDA-MB-435,0%
same,inhibition at 10 µM,CAKI-1,91%
same,inhibition at 10 µM,OVCAR-5,18%
same,inhibition at 10 µM,KM12,35%
same,TGI,MOLT-4,>100 µM
same,GI50,MOLT-4; Homo sapiens,2.92 µM
same,CC50,MOLT-4; [3],> 100 µM
same,TGI,RPMI-8226,>100 µM
same,GI50,RPMI-8226; Homo sapiens,5.38 µM
same,CC50,RPMI-8226; [3],> 100 µM
same,cytotoxicity (activity in words),LN-229,ineffective
same,cytotoxicity (activity in words),U-118MG,moderate activity
same,TGI,HT29,>100 µM
same,GI50,"HT29; Homo sapiens, HT-29",> 100 µM
same,CC50,"HT29; Homo sapiens, HT-29, read-out: LC50 (the source's name)",> 100 µM
same,GI50,"MALME-3M; Homo sapiens, Malme-3M",2 µM
same,CC50,"MALME-3M; Homo sapiens, Malme-3M, read-out: LC50 (the source's name)",9.34 µM
same,TGI,MALME-3M; MALME-3M,4.32 µM
same,TGI,MDA-MB-231/ATCC,>100 µM
same,GI50,MDA-MB-231/ATCC; Homo sapiens,5.36 µM
same,CC50,MDA-MB-231/ATCC; [3],> 100 µM
same,GI (%),EKVX,100 ^d %
same,inhibition at 10 µM,EKVX,100%
same,inhibition at 10 µM,NCI-H226,100%
same,GI (%),NCI-H226,100 ^e %
same,TGI,MDA-MB-468 [1],>100 µM
same,GI50,MDA-MB-468 [1]; Homo sapiens,3.24 µM
same,CC50,MDA-MB-468 [1]; [3],> 100 µM
O=C1C(Nc2ccc(I)cc2)=CC(c2ccc(O)cc2)N1c1ccc(I)cc1 (stereo not shown) [3g],inhibition at 10 µM,OVCAR-8,31%
same,inhibition at 10 µM,COLO205,42%
same,inhibition at 10 µM,PC-3,73%
same,inhibition at 10 µM,SN12C,60%
same,inhibition at 10 µM,HCC-2998,53%
same,inhibition at 10 µM,A498,48%
same,inhibition at 10 µM,SNB-19,17%
same,inhibition at 10 µM,SK-MEL-5,27%
same,inhibition at 10 µM,MDA-MB-435,38%
same,inhibition at 10 µM,CAKI-1,41%
same,inhibition at 10 µM,OVCAR-5,24%
same,inhibition at 10 µM,KM12,80%
same,cytotoxicity (activity in words),LN-229,ineffective
same,cytotoxicity (activity in words),U-118MG,moderate activity
same,inhibition at 10 µM,EKVX,64%
same,GI (%),UO-31,54%
same,inhibition at 10 µM,NCI-H226,47%
same,GI (%),BT-549,54%
same,GI (%),U251,29%
same,GI (%),MDA-MB-468 [2],96%
same,GI (%),HOP-62,5%
same,GI (%),SF-295,48%
